Experimental data as given in patent US20090012045A1, “Methods of Treating Cell Proliferative Disorders” (RIGEL PHARMACEUTICALS, INC., priority 2007, published 2009).

Assays:
[1] = in vivo metabolism of prodrug to active drug
Source text: It has recently been discovered that a phosphate-containing prodrug according to the structure illustrated below (Compound P-1):
19, 2006 (US2006/0211657 A1), at paragraphs 134-142 and 146 of the printed publication.

Ret (h) = Ret (h) (Homo sapiens, UniProt P07949); assay: RET kinase activity, [γ-33P-ATP] filter assay; type: biochemical
[2] = in vitro metabolism of prodrug to active drug; type: in vitro ADME; conditions: rat plasma, rat hepatic and intestinal microsomal preparations
Source text: Although phosphate-containing prodrugs suitable for oral administration are of interest, skilled artisans will appreciate that prodrugs including phosphate-containing progroups R^p can be administered via other routes of administration, as phosphatases are distributed throughout the body. […] Thus, the only requirement is that the particular phosphate-containing progroup R^p selected should be removable under the conditions of intended use.

Ret = target: T1, Ret (Homo sapiens, UniProt P07949); assay: Ret autophosphorylation, fluorescence polarization assay; type: biochemical; conditions: 4 ng Ret, 5 μM ATP, 20 min; read-out: IC50 for inhibition of Ret autophosphorylation
T1 construct: purchased Upstate 14-570
T1 sequence (P07949 658-1114 limits assumed): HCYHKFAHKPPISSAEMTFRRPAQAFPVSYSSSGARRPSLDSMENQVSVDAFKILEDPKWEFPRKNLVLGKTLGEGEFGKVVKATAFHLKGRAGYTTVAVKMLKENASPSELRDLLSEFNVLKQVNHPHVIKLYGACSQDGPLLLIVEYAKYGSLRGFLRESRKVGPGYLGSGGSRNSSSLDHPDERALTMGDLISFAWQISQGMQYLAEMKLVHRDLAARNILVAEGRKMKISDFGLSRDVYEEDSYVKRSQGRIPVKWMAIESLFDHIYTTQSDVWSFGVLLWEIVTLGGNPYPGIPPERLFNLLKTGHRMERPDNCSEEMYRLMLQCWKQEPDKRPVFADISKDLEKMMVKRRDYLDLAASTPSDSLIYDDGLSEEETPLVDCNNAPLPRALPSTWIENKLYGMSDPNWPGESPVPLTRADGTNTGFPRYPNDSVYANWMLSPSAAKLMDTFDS

[3] = compound concentration 0.3 micromoles
[4] = compound concentration 1 micromoles
[5] = compound concentration 0.03 micromoles
[6] = compound concentration 0.2 micromoles
[7] = compound concentration 0.02 micromoles

Sequence of Ret (h) (P07949 29-1114): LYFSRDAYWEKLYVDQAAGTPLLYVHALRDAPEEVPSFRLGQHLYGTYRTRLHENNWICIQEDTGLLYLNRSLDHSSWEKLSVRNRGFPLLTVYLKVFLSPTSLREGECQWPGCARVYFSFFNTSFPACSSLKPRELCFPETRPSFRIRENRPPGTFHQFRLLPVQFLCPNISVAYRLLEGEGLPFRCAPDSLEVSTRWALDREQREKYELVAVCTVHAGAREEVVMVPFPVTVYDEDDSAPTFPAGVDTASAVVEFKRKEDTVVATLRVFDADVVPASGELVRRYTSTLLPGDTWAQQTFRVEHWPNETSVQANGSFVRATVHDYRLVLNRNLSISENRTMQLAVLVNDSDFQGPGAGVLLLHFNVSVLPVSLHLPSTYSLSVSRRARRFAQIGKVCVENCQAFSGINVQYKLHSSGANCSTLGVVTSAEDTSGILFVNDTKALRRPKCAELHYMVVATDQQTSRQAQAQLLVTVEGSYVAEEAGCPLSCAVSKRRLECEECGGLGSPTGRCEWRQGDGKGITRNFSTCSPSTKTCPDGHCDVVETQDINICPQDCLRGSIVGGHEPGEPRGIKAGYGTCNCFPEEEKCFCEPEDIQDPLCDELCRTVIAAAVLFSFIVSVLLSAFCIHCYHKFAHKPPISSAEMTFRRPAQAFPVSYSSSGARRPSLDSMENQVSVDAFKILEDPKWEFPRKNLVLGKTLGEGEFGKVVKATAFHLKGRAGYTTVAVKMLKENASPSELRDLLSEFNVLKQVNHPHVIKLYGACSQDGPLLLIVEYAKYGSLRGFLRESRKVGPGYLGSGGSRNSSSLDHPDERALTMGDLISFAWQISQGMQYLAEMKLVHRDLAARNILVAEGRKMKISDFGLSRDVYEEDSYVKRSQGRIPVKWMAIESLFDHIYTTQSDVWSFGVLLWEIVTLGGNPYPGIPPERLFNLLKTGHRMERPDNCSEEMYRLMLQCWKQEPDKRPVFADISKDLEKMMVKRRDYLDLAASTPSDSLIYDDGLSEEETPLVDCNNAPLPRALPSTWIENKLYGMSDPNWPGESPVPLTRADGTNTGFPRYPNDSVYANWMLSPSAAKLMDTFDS

RET kinase autophosphorylation activity as a percentage of control RET kinase activity (Ret (h); [4]) | IC50 (Ret) | RET kinase autophosphorylation activity as a percentage of control RET kinase activity (Ret (h); [6]) | Molecule | further results
1% | – | 19% | Cc1ccc(Nc2ncc(F)c(Nc3ccc(OCC#N)cc3)n2)cc1S(N)(=O)=O [Compound 10] | –
0% | – | – | Cc1noc(COc2ccc(Nc3nc(Nc4cccc(O)c4)ncc3F)cc2)n1 [Compound 5, 3-(5-fluoro-4-(4-((3-methyl-1,2,4-oxadiazol-5-yl)methoxy)phenylamino)pyrimidin-2-ylamino)phenol] | RET kinase autophosphorylation activity as a percentage of control RET kinase activity (Ret (h); compound concentration 0.01 micromoles): 0%; RET kinase autophosphorylation activity as a percentage of control RET kinase activity (Ret (h); [5]): 0%; RET kinase autophosphorylation activity as a percentage of control RET kinase activity (Ret (h); compound concentration 0.1 micromoles): 0%; RET kinase autophosphorylation activity as a percentage of control RET kinase activity (Ret (h); [3]): 0%
– | 7.3 nM | – | COc1cc(Nc2ncc(F)c(Nc3ccc4c(n3)NC(=O)C(C)(C)O4)n2)cc(O)c1OC [Compound 4, 6-(5-fluoro-2-(3-hydroxy-4,5-dimethoxy-phenylamino)pyrimidin-4-ylamino)-2,2-dimethyl-2H-pyrido[3,2-b][1,4]oxazin-3(4H)-one] | –

Continued, molecule first:

Molecule | RET kinase autophosphorylation activity as a percentage of control RET kinase activity (Ret (h); [4]) | IC50 (Ret) | RET kinase autophosphorylation activity as a percentage of control RET kinase activity (Ret (h); [6]) | further results
COc1cc(Nc2ncc(F)c(Nc3ccc4c(n3)N(COP(=O)(O)O)C(=O)C(C)(C)O4)n2)cc(OC)c1OC [Compound 9, (6-(5-fluoro-2-(3,4,5-trimethoxyphenylamino)pyrimidin-4-ylamino)-2,2-dimethyl-3-oxo-2H-pyrido[3,2-b][1,4]oxazin-4(3H)-yl)methyldihydrogenphosphate] | 11% | – | – | metabolism of prodrug to the active drug Compound 1 [1]: metabolizes in vivo to the corresponding active 2,4-pyrimidinediamine compound; RET kinase autophosphorylation activity as a percentage of control RET kinase activity (Ret (h); [3]): 47%; metabolism of prodrug to the active drug Compound 1 [2]: metabolize to the active drug Compound 1
Cc1nc2ccc(Nc3ncc(F)c(Nc4ccc5c(c4)NC(=O)C(C)(C)S5)n3)cc2[nH]1 [Compound 3, 6-(5-fluoro-2-(2-methyl-1H-benzo[d]imidazol-6-ylamino)pyrimidin-4-ylamino)-2,3-dimethyl-2H-benzo[b][1,4]thiazin-3(4H)-one] | – | 16.5 nM | – | –
2-(3-(4-(2,2-difluoro-3-oxo-3,4-dihydro-2H-pyrido[3,2-b][1,4]oxazin-6-ylamino)-5-fluoropyrimidin-2-ylamino)phenoxy)-N-methylacetamide [Compound 2] | 0% | 11.8 nM | – | RET kinase autophosphorylation activity as a percentage of control RET kinase activity (Ret (h); [5]): 0%; RET kinase autophosphorylation activity as a percentage of control RET kinase activity (Ret (h); compound concentration 3 micromoles): 0%
Cc1cc(Nc2ncc(F)c(NC3CCCC3C(N)=O)n2)ccc1N1CCN(C)CC1 (centres unmarked) [Compound 7, 2-(5-fluoro-2-(3-methyl-4-(4-methylpiperazin-1-yl)phenylamino)pyrimidin-4-ylamino)cyclo-pentanecarboxamide] | 2% | – | 34% | RET kinase autophosphorylation activity as a percentage of control RET kinase activity (Ret (h); [7]): 74%
Cc1cc(Nc2cc(N3CCN(C)CC3)nc(Sc3ccc(NC(=O)C4CC4)cc3)n2)[nH]n1 [Compound 6, N-(4-(4-(3-methyl-1H-pyrazol-5-ylamino)-6-(4-methylpiperazin-1-yl)pyrimidin-2-ylthio)phenyl)cyclopropanecarboxamide] | 4% | – | 26% | RET kinase autophosphorylation activity as a percentage of control RET kinase activity (Ret (h); [7]): 78%
